From patent US11981669B2, “1,7-naphthyridine derivative and preparation method and use therefor” (CSPC ZHONGQI PHARMACEUTICAL TECHNOLOGY (SHIJIAZHUANG) CO., …, priority 2018, dated 2024)
Values joined by “and” are separate entries in the source; they are usually repeats but may differ in a detail not shown here. Equal entries are not always repeated. Marks after values point to notes of the source that are not given here.

Assays:
[1] = target: hERG channels (Homo sapiens (Human), UniProt Q12809); test: cell-based; type: cell-based; conditions: for Inhibitory effect on hERG current at the highest test concentration: human, 30 μM
hERG channels, sequence (Q12809 whole entry, the tested form may be a part): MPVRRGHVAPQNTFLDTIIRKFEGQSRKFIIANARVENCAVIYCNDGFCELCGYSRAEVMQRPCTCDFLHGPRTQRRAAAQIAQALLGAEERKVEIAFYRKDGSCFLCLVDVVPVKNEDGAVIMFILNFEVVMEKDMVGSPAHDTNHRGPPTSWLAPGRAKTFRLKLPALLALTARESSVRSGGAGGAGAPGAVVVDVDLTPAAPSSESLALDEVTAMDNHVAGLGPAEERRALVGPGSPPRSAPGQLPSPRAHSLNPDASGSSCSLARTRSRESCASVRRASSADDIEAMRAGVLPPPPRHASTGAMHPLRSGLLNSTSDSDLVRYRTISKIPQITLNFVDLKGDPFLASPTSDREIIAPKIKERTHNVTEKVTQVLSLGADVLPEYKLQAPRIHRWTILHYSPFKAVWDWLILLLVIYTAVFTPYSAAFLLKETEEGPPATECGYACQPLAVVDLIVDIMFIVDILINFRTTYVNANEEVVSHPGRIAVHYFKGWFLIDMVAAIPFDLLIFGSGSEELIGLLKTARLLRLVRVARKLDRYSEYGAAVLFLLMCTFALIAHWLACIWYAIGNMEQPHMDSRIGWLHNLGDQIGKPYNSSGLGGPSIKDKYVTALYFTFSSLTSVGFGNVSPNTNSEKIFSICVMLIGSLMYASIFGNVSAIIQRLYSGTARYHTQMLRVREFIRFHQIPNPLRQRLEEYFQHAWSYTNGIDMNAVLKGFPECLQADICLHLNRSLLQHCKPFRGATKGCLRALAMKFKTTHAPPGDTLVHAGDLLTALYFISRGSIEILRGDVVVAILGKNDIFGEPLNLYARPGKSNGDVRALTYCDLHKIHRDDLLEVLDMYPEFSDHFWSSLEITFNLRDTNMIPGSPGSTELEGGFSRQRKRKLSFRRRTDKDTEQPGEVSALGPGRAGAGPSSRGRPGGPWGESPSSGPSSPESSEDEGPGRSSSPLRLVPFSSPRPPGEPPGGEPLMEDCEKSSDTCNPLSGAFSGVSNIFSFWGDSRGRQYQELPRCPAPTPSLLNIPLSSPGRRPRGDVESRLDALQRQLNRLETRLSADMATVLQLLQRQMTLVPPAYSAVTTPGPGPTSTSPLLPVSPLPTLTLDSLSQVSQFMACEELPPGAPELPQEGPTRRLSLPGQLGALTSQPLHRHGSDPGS
Description: Whole-cell patch clamp technique was used to record hERG current. A cell suspension was added to a 35 mm Petri dish, and the dish was then placed on an inverted microscope stage. After the adherence of cells, they were perfused with extracellular fluid at a flow rate of 1-2 mL/min. A glass microelectrode was drawn by a microelectrode puller in two steps, and the pipette tip resistance was between 2-5 MΩ. After establishing the whole cell recording, the clamp potential was held at −80 mV, followed by depolarization to +60 mV when given voltage stimulation and then repolarization to −50 mV to elicit hERG tail current. All recordings were performed after the current was stable. Extracellular perfusion administration started from a low concentration, staying for 5-10 min at each concentration until the current was stable, and then cells were further perfused with the next concentration.

[2] = system: erythropoietin; test: Expression of erythropoietin in vivo (plasma EPO ELISA after single oral dose); conditions: once; for EPO OD value: plasma 6 hours after administration;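 on all read-outs here: male C57 mice given compound by mouth, five animals per treatment group, with EPO in plasma measured by ELISA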
Description: (2) 30 c57 mice, male, were divided into 6 groups, 5 mice in each treatment group. […] 6 hours after the administration, blood was taken, and plasma was collected for EPO detection with an ELISA kit (R&D Co.).

[3] = system: reticulocytes; test: Effect on reticulocytes of normal mice; type: in vivo, Balb/c mice; parameters: Reticulocytes (RETIC), average: unit not given here
Description: 72 Balb/c mice, male, were divided into 12 groups, 6 mice in each treatment group. In the positive drug control groups: the mice in the FG-4592 treatment groups were orally administered once, at two doses of 10 mg/kg and 50 mg/kg, and the mice in the rhEPO treatment group was intraperitoneaily injected once, at a dose of 100 IU/kg. The compounds of the present disclosure were all orally administered once at a dose of 10 mg/kg. 72 h after the administration, blood was collected from the orbit of all animals, and subjected to EDTA-K2 anticoagulation. Then reticulocytes (RETIC) were counted with an automatic blood cell analyzer.

[4] = target: CYP1A2 (Homo sapiens (Human), UniProt P05177); type: in vitro ADME
CYP1A2, sequence (P05177 whole entry): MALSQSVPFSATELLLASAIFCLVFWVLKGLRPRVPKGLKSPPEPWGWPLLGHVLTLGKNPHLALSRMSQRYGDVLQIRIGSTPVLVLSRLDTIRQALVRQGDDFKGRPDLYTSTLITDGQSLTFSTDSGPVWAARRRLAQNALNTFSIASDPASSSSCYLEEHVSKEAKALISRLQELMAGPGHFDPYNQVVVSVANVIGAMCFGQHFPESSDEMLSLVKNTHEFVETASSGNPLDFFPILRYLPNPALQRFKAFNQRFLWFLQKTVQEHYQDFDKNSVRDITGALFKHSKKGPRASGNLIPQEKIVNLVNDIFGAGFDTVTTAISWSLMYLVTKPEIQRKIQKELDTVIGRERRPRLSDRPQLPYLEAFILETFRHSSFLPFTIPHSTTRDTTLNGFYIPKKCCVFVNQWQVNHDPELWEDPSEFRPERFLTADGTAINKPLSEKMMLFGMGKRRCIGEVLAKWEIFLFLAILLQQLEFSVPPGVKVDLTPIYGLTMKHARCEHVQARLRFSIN
Text: (§1) The compounds of the present disclosure were subjected to the CYP450 enzyme inhibition assay.

[5] = target: CYP2C9 (Homo sapiens (Human), UniProt P11712); test: CYP enzyme inhibition assay; type: in vitro ADME
CYP2C9, sequence (P11712 whole entry): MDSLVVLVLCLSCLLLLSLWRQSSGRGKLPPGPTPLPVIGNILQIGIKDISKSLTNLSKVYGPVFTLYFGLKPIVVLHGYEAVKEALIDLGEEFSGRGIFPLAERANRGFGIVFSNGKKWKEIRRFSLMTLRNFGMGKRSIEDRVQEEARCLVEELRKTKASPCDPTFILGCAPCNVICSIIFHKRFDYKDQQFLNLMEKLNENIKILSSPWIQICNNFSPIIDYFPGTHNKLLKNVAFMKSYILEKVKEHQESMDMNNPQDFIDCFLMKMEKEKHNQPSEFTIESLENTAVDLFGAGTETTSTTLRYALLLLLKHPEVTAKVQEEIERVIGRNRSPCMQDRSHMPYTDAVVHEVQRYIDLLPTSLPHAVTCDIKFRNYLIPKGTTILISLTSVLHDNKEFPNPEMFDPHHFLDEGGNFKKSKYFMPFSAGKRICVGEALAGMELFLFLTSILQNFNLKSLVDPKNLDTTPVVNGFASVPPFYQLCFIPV
Text: as §1

[6] = target: CYP2C19 (Homo sapiens (Human), UniProt P33261); test: CYP enzyme inhibition assay; type: in vitro ADME
CYP2C19, sequence (P33261 whole entry): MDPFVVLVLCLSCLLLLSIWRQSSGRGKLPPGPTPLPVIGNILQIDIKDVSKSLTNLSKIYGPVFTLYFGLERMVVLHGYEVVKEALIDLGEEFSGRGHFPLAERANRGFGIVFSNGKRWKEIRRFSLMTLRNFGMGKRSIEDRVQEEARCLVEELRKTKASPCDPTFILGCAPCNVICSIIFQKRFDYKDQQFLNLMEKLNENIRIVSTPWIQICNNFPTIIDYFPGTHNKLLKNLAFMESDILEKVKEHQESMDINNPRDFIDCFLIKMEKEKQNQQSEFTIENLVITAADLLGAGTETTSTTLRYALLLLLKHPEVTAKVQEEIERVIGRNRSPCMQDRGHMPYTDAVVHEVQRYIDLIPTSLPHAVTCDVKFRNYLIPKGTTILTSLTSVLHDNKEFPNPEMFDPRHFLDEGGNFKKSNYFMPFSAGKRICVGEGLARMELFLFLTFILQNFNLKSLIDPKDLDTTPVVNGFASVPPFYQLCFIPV
Text: as §1

[7] = target: CYP2D6 (Homo sapiens (Human), UniProt P10635); test: CYP enzyme inhibition assay; type: in vitro ADME
CYP2D6, sequence (P10635 whole entry): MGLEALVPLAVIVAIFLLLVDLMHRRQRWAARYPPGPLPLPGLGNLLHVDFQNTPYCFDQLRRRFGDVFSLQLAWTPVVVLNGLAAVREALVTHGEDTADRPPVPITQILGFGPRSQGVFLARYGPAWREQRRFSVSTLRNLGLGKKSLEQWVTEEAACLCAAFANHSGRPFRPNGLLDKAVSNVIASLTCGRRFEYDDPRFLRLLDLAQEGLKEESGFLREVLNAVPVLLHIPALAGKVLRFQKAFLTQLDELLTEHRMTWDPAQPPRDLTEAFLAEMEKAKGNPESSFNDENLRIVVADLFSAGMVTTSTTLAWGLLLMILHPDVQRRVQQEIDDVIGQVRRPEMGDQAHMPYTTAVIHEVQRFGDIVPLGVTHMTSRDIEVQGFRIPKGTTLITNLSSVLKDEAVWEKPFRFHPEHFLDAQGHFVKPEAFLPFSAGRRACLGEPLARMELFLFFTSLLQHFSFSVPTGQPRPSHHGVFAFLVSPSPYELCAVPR
Text: as §1

[8] = target: CYP3A4-M (Homo sapiens (Human), UniProt P08684); test: CYP enzyme inhibition assay; type: in vitro ADME
CYP3A4-M, sequence (P08684 whole entry): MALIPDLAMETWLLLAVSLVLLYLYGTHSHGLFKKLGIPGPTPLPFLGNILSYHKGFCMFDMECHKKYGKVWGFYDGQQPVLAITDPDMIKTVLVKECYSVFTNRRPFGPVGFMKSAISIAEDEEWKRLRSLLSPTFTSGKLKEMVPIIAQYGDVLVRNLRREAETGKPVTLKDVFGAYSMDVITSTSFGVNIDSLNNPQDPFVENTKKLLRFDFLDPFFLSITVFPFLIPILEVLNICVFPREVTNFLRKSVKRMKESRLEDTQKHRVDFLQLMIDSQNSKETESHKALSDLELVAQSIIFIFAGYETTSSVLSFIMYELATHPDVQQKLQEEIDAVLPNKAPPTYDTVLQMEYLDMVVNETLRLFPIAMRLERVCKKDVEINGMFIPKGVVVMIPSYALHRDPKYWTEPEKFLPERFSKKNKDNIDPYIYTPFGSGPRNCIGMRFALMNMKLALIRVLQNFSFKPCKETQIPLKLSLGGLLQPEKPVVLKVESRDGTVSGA
Text: as §1

[9] = system: HIF-1α; test: Expression of HIF-1α protein in Hep3B cells (western blot, grayscale analysis); type: cell-based, Human; conditions: for fold induction at 30 µM: Homo sapiens, 2 h, compound at 30 μM, 10 μM and 3 μM, read-out: HIF-1α level of the compound of the present disclosure/HIF-1α level of blank control
Description: (§2) A test compound was dissolved in dimethyl sulfoxide into a 100 mM stock solution, and then was diluted with 0.5% FBS-containing DMEM medium into 30 μM, 10 μM and 3 μM for later use. Human liver cancer cells Hep3B were seeded in a six-well plate at a density of 2.25*10^5 cells/well, 2 mL per well. After cultivation overnight, the cells were treated with compounds at different concentrations for 2 h. The proteins were extracted for western blot and further grayscale analysis.

[10] = system: HIF-2α; test: Expression of HIF-2α protein in Hep3B cells (western blot, grayscale analysis); type: cell-based, Human; conditions: for fold induction at 30 µM: Homo sapiens, 2 h, compound at 30 μM, 10 μM and 3 μM, read-out: HIF-2α level of the compound of the present disclosure/HIF-2α level of blank control
Description: as §2

[11] = system: rats with residual kidney; test: SD rat residual kidney experiment; type: in vivo, SD rats; parameters: Hematocrit / Alanine aminotransferase / Glutamic-oxalacetic transaminase: unit not given here
Description: 79 SD rats were subjected to residual kidney surgery after anesthesia (left kidney was resected, one third of the right kidney was left, and the resected kidney part was weighed to confirm the surgical error). After 4 weeks, 45 surviving rats were subjected to blood cell dection and then assigned according to the HCT value 37 rats in good condition were selected and divided into the following groups: Link-118 (5, 10 mg/kg), Link-121 (5, 10 mg/kg), and FG-4592 (10 mg/kg), 6 rats in each treatment group, and 7 in the model group. 4 rats were assigned to the blank control group. The rats were administered three times each week (administered on Monday, Wednesday, and Friday), for 15 times, and blood was taken 24 hours after the last administration (tested by blood routine, blood biochemistry, hepcidin kit).

[12] = 10 mg/kg p.o., once, 72 h after administration
[13] = 10 mg/kg, three times each week, 15 times, x ± sd
[14] = compared with the blank control group
[15] = 100 IU/kg i.p., once, 72 h after administration

Molecule | IC50 [1] [µM] | Inhibitory effect on hERG current at the highest test concentration [1] | EPO OD value ([2]; 10 mg/kg) | EPO OD value ([2]; 50 mg/kg) | Reticulocytes (RETIC), average [3, 12] | IC50 [4] [µM] | IC50 [5] [µM] | IC50 [6] [µM] | IC50 [7] [µM] | IC50 [8] [µM] | fold induction at 30 µM [9] | fold induction at 30 µM [10] | other results
O=C(O)CNC(=O)c1nc(Br)c2nc(Oc3cccc(Cl)c3)ccc2c1O [Link-127, 2-(2-(3-chlorophenoxy)-5-hydroxy-8-bromo-1,7-naphthyridine-6-formamido) Acetic Acid] | > 30 | far from the IC50 value | A (A represents 1.0<EPO OD value<1.5) | D (D represents EPO OD value>3) | 5.63 | 37.9 | > 50 | > 50 | > 50 | > 50 | – | – | –
O=C(O)CNC(=O)c1nc(Br)c2nc(Oc3ccc(F)cc3)ccc2c1O [Link-131, 2-(2-(4-fluorophenoxy)-5-hydroxy-8-bromo-1,7-naphthyridine-6-formamido) Acetic Acid] | – | – | A (A represents 1.0<EPO OD value<1.5) | A (A represents 1.0<EPO OD value<1.5) | – | – | – | – | – | – | 4.5 to 8.5 | 4.5 to 8.5 | HIF-1α protein expression compared with blank control [9]: higher than that of the blank control; HIF-2α protein expression compared with blank control [10]: higher than that of the blank control
Cc1nc(C(=O)NCC(=O)O)c(O)c2ccc(Oc3ccccc3)cc12 [FG-4592, reference compound] | – | – | A (A represents 1.0<EPO OD value<1.5) | A (A represents 1.0<EPO OD value<1.5) | 4.73 | – | – | – | – | – | 8.5 to 10 | 8.5 to 10 | Red blood cells ([11]; 10 mg/kg, three times each week, 15 times, blood 24 hours after last administration, x ± sd): 8.26 ± 0.41** 10^12/L; Alanine aminotransferase [11, 13]: 40.4 ± 3.58; Glutamic-oxalacetic transaminase [11, 13]: 11620 ± 10.96; Hematocrit [11, 13]: 47.7 ± 2.19; Hemoglobin [11, 13]: 16720 ± 8.47 g/L; Hepcidin [11, 13]: 2.59 ± 0.7015 ng/mL; Effect on glutamic-oxalacetic transaminase [11, 14]: no significant effect; Effect on liver glutamic-pyruvic aminotransferase [11, 14]: no significant effect; Effect on HCT in rats with residual kidney ([11]; compared with the model group): significantly increase; Effect on HGB in rats with residual kidney ([11]; compared with the model group): significantly increase; Effect on RBC in rats with residual kidney ([11]; compared with the model group): significantly increase; Effect on hepcidin in rats with residual kidney ([11]; compared with the model group): significantly inhibit; Reticulocytes (RETIC), average ([3]; 50 mg/kg p.o., once, 72 h after administration): 7.42; Reticulocyte counts compared with normal animals ([3]; 72 h after single administration, FG4592 statement at 10 mg/kg): no significant difference from normal animals
CC(C)(C)C(=O)OCOC(=O)CNC(=O)c1nc(Cl)c2nc(Oc3ccccc3)ccc2c1O [Link-135, methyl (2-(2-phenoxy-5-hydroxy-8-chloro-1,7-naphthyridine-6-formamido)acetoxy) pivalate] | – | – | B (B represents 1.5<EPO OD value<2) | B (B represents 1.5<EPO OD value<2) | – | – | – | – | – | – | – | – | –
CCOc1ccc2c(O)c(C(=O)NCC(=O)O)nc(Cl)c2n1 [Link-134, 2-(2-ethoxy-5-hydroxy-8-chloro-1,7-naphthyridine-6-formamido) Acetic Acid] | – | – | A (A represents 1.0<EPO OD value<1.5) | A (A represents 1.0<EPO OD value<1.5) | – | – | – | – | – | – | 1 to 4.5 | 1 to 4.5 | HIF-1α protein expression compared with blank control [9]: higher than that of the blank control; HIF-2α protein expression compared with blank control [10]: higher than that of the blank control
O=C(O)CNC(=O)c1nc(Br)c2nc(Oc3ccc(Cl)cc3)ccc2c1O [Link-129, 2-(2-(4-chlorophenoxy)-5-hydroxy-8-bromo-1,7-naphthyridine-6-formamido) Acetic Acid] | > 30 | far from the IC50 value | D (D represents EPO OD value>3) | D (D represents EPO OD value>3) | 7.30 | > 50 | > 50 | > 50 | > 50 | > 50 | 1 to 4.5 | 1 to 4.5 | HIF-1α protein expression compared with blank control [9]: higher than that of the blank control; Promotion of expression of erythropoietin in vivo ([2]; at 10 mg/kg): significantly promote the expression of erythropoietin; HIF-2α protein expression compared with blank control [10]: higher than that of the blank control
COc1ccc(Oc2ccc3c(O)c(C(=O)NCC(=O)O)nc(Cl)c3n2)cc1 [Link-119, 2-(2-(4-methoxyphenoxy)-5-hydroxy-8-chloro-1,7-naphthyridine-6-formamido) Acetic Acid] | – | – | A (A represents 1.0<EPO OD value<1.5) | A (A represents 1.0<EPO OD value<1.5) | – | – | – | – | – | – | – | – | –
O=C(O)CNC(=O)c1nc(Cl)c2nc(Cl)ccc2c1O [Link-122, 2-(2,8-dichloro-5-hydroxy-1,7-naphthyridine-6-formamido) acetic acid] | – | – | A (A represents 1.0<EPO OD value<1.5) | B (B represents 1.5<EPO OD value<2) | – | – | – | – | – | – | – | – | –
O=C(O)CNC(=O)c1nc(Cl)c2nc(Oc3cccnc3)ccc2c1O [Link-120, 2-(2-(pyrid-3-yloxy)-5-hydroxy-8-chloro-1,7-naphthyridine-6-formamido) Acetic Acid] | – | – | A (A represents 1.0<EPO OD value<1.5) | A (A represents 1.0<EPO OD value<1.5) | – | – | – | – | – | – | – | – | –
O=C(O)CNC(=O)c1nc(Cl)c2nc(Oc3cccc(Cl)c3)ccc2c1O [Link-126, 2-(2-(3-chlorophenoxy)-5-hydroxy-8-chloro-1,7-naphthyridine-6-formamido) Acetic Acid] | > 30 | far from the IC50 value | A (A represents 1.0<EPO OD value<1.5) | D (D represents EPO OD value>3) | 5.87 | > 50 | > 50 | > 50 | > 50 | > 50 | – | – | –
O=c1c(-n2ccnn2)c[nH]n1-c1cc(N2CCOCC2)ncn1 [BAY85-3934, reference compound] | – | – | B (B represents 1.5<EPO OD value<2) | D (D represents EPO OD value>3) | – | – | – | – | – | – | – | – | –
rhEPO: positive drug control, intraperitoneally injected once at 100 IU/kg | – | – | – | – | – | – | – | – | – | – | – | – | Reticulocytes (RETIC), average [3, 15]: 6.58; Reticulocytes (RETIC), individual animals No. 1-6 [3, 15]: 5.9 (2×) and 6.6 (2×) and 7.1 and 7.4
O=C(O)CNC(=O)c1nc(Cl)c2nc(Oc3ccc(Cl)cc3)ccc2c1O [Link-128, 2-(2-(4-chlorophenoxy)-5-hydroxy-8-chloro-1,7-naphthyridine-6-formamido) Acetic Acid] | > 30 | far from the IC50 value | A (A represents 1.0<EPO OD value<1.5) | D (D represents EPO OD value>3) | 6.15 | > 50 | > 50 | > 50 | > 50 | > 50 | – | – | –
